Converted amounts (≈) assume the structure as drawn. Like-named read-outs stand apart in the source and are kept apart here.
Experiments:
Assay type in all cases: cell-based
[1] = tested on: Escherichia coli MC4100 harboring the IMP4213 (E. coli IMP); assay: microbe, parasite or virus in culture; conditions: Escherichia coli, 22 h, read-out: MIC (μg/mL) E. coli IMP, E. coli MC4100 IMP4213, increased outer-membrane permeability; 35° C., 22 hours
Method in brief: (§1)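 CLSI broth microdilution in cation-adjusted Mueller Hinton Broth with 0.002% Tween-80; inoculum final OD600 0.0005, 22 hours at 35° C. Ten 2-fold dilutions starting at 4 μg/mL (protocol 2) or 0.5 μg/mL (protocol 3).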

[2] = tested on: Methicillin Resistant Staphylococcus aureus strain USA 300, NRS384; assay: Minimum inhibitory concentration, broth micro-dilution (CLSI), S. aureus; conditions: Staphylococcus aureus, MRSA / NRS 384 / USA300, 22 h, 35° C., 22 hours
Method in brief: as §1

[3] = tested on: Escherichia coli ATCC 25922; assay: Minimum inhibitory concentration, broth micro-dilution (CLSI), E. coli; conditions: Escherichia coli, ATCC25922, 22 h, 35° C., 22 hours
[4] = MRSA USA 300 NRS384, read-out: MIC (μg/mL) S. aureus
[5] = E. coli ATCC 25922, read-out: MIC (μg/mL) E. coli
[6] = read-out: MIC (μg/mL) S. aureus, MRSA USA 300 NRS384
[7] = read-out: MIC (μg/mL) E. coli, E. coli ATCC 25922

Structure (SMILES)	MIC [1]	MIC [2, 4]	MIC [3, 5]	MIC [2, 6]	MIC [3, 7]
CCCCc1ccc(C(=O)N[C@@H](CCCCN)CC(=O)N(C)[C@@H]2C(=O)N[C@@H](C)C(=O)N[C@H](C(=O)NCC#N)Cc3ccc(OCCN)c(c3)-c3cc2ccc3OCCN)c(C)c1 [Compound 509]	> 4 µg/mL	3 µg/mL (≈ 3.51 µM)	> 64 µg/mL	–	–
CCCCc1ccc(C(=O)N[C@H](CCCCN)CC(=O)N(C)[C@@H]2C(=O)N[C@@H](C)C(=O)N[C@H](C(=O)NCC#N)Cc3ccc(OCCN)c(c3)-c3cc2ccc3OCCN)c(C)c1 [Compound 510]	> 4 µg/mL	1.5 µg/mL (≈ 1.76 µM)	> 64 µg/mL	–	–
CCCCc1ccc(C(=O)N[C@@H](CCN)CC(=O)N(C)[C@@H]2C(=O)N[C@@H](C)C(=O)N[C@H](C(=O)NCC#N)Cc3ccc(OCCN)c(c3)-c3cc2ccc3OCCN)c(C)c1 [Compound 511]	1 µg/mL (≈ 1.21 µM)	1.5 µg/mL (≈ 1.82 µM)	> 64 µg/mL	–	–
CCCCCc1ccc(C(=O)N[C@@H](CCN)CC(=O)N(C)[C@@H]2C(=O)N[C@@H](C)C(=O)N[C@H](C(=O)NCC#N)Cc3ccc(OCCN)c(c3)-c3cc2ccc3OCCN)c(C)c1 [Compound 512]	0.5 µg/mL (≈ 0.595 µM)	0.38 µg/mL (≈ 0.452 µM)	64 µg/mL (≈ 76.2 µM)	–	–
CCCCCCc1ccc(C(=O)N[C@@H](CCN)CC(=O)N(C)[C@@H]2C(=O)N[C@@H](C)C(=O)N[C@H](C(=O)NCC#N)Cc3ccc(OCCN)c(c3)-c3cc2ccc3OCCN)c(C)c1 [Compound 513]	0.13 µg/mL (≈ 0.152 µM)	0.19 µg/mL (≈ 0.222 µM)	16 µg/mL (≈ 18.7 µM)	–	–
CCCCCCCCCCN(CCC(=O)N[C@@H](CCCCNC(=O)OC(C)(C)C)C(=O)N(C)[C@@H]1C(=O)N[C@@H](C)C(=O)N[C@H](C(=O)O)Cc2ccc(OC(=O)OC(C)(C)C)c(c2)-c2cc1ccc2OC1O[C@H](CO)[C@@H](O)[C@H](O)[C@H]1NC(=O)OC(C)(C)C)C(=O)OC(C)(C)C (stereo partly drawn) [Compound 516]	> 4 µg/mL	2 µg/mL (≈ 1.52 µM)	> 64 µg/mL	–	–
CCCCc1ccc(-c2ccc(C(=O)N[C@@H](CCC(=O)NCC(O)CO)C(=O)N(C)[C@@H]3C(=O)N[C@@H](C)C(=O)N[C@H](C(=O)NCC#N)Cc4ccc(OCCN)c(c4)-c4cc3ccc4OCCN)cc2)cc1 (stereo partly drawn) [Compound 517]	0.19 µg/mL (≈ 0.195 µM)	0.38 µg/mL (≈ 0.389 µM)	6 µg/mL (≈ 6.15 µM)	–	–
CCCCCCc1ccc(C(=O)N[C@@H](CCN[C@@H]2[C@@H](O)[C@H](O)[C@@H](CO)O[C@@H]2O)C(=O)N(C)[C@@H]2C(=O)N[C@@H](C)C(=O)N[C@H](C(=O)NCC#N)Cc3ccc(OCCN)c(c3)-c3cc2ccc3OCCN)c(C)c1 [Compound 518]	0.063 µg/mL (≈ 0.0629 µM)	–	–	0.38 µg/mL (≈ 0.379 µM)	4 µg/mL (≈ 3.99 µM)
CCCCCCc1ccc(C(=O)N[C@@H](CCN)C(=O)N(C)[C@@H]2C(=O)N[C@@H](C)C(=O)N[C@H](C(=O)NCC#N)Cc3ccc(OCCN)c(c3)-c3cc2ccc3OCCN)c(OCCN)c1 [Compound 519]	0.25 µg/mL (≈ 0.282 µM)	0.13 µg/mL (≈ 0.147 µM)	16 µg/mL (≈ 18.1 µM)	–	–
CCCCCCCCCC(=O)N[C@H](CO)C(=O)N1CC(N)C[C@H]1C(=O)N(C)[C@@H]1C(=O)N[C@@H](C)C(=O)N[C@H](C(=O)NCC#N)Cc2ccc(OCCN)c(c2)-c2cc1ccc2OCCN (stereo partly drawn) [Compound 524-1]	0.19 µg/mL (≈ 0.213 µM)	–	–	0.22 µg/mL (≈ 0.247 µM)	16 µg/mL (≈ 18 µM)
CCCCCCCCCCNCC(CO)C(=O)N(C)[C@@H]1C(=O)N[C@@H](C)C(=O)N[C@H](C(=O)NCC#N)Cc2ccc(OCCN)c(c2)-c2cc1ccc2OCCN (stereo partly drawn) [Compound 525]	> 4 µg/mL	1.5 µg/mL (≈ 1.93 µM)	> 64 µg/mL	–	–
CCCCCCc1ccc(C(=O)N2CCC(N)C[C@H]2C(=O)N(C)[C@@H]2C(=O)N[C@@H](C)C(=O)N[C@H](C(=O)NCC#N)Cc3ccc(OCCN)c(c3)-c3cc2ccc3OCCN)c(C)c1 (stereo partly drawn) [Compound 526-3]	0.031 µg/mL (≈ 0.0358 µM)	0.063 µg/mL (≈ 0.0727 µM)	3 µg/mL (≈ 3.46 µM)	–	–
CCCCCCOc1ccc(N2CCN(c3ccc(C(=O)N[C@@H](CCN)C(=O)N(C)[C@@H]4C(=O)N[C@@H](C)C(=O)N[C@H](C(=O)NCC#N)Cc5ccc(OCCN)c(c5)-c5cc4ccc5OCCN)cc3)CC2)cc1 [Compound 527]	0.063 µg/mL (≈ 0.0629 µM)	0.063 µg/mL (≈ 0.0629 µM)	4 µg/mL (≈ 3.99 µM)	–	–

— patent publication US20180327367A1, “MACROCYCLIC BROAD SPECTRUM ANTIBIOTICS” (priority 2015, published 2018)
